Patent US7868008B2, “Substituted isoindolones and their use as metabotropic glutamate receptor potentiators” (AstraZeneca AB, priority 2005, dated 2011)

Target: T1, human mGluR2 (Homo sapiens, UniProt Q14416)
T1 construct: chimeric mGluR2/CaR construct comprising the extracellular and transmembrane domains of human mGluR2 and the intracellular domain of the human calcium receptor, fused
Test: mGluR2 potentiator assays described herein (FLIPR calcium mobilization in HEK 293 cells expressing chimeric mGluR2/CaR, or [35S]-GTPγS binding with CHO cell membranes)
Format: cell-based
Conditions: assay not specified (FLIPR or [35S]-GTPγS); allosteric activator/potentiator activity at mGluR2
Source text: The pharmacological properties of the compounds of the invention can be analyzed using standard assays for functional activity. Examples of glutamate receptor assays are well known in the art as described in, for example, Aramori et al., 1992, Neuron, 8:757; Tanabe et al., 1992, Neuron, 8:169; Miller et al., 1995, J. Neuroscience, 15:6103; Balazs, et al., 1997, J. Neurochemistry, 1997, 69:151. The methodology described in these publications is incorporated herein by reference. Conveniently, the compounds of the invention can be studied by means of an assay that measures the mobilization of intracellular calcium, [Ca^2+]i in cells expressing mGluR2.
Fluorometric Imaging Plate Reader (FLIPR) analysis was used to detect allosteric activators of mGluR2 via calcium mobilization. A clonal HEK 293 cell line expressing a chimeric mGluR2/CaR construct comprising the extracellular and transmembrane domains of human mGluR2 and the intracellular domain of the human calcium receptor, fused to the promiscuous chimeric protein Gαqi5 was used. […] At 24-hours prior to analysis, the cells were trypsinized and plated in DMEM at 100,000 cells/well in black sided, clear-bottom, collagen I coated, 96-well plates. The plates were incubated under 5% CO2 at 37° C. overnight. Cells were loaded with 6 μM fluo-3 acetoxymethylester (Molecular Probes, Eugene Oreg.) for 60 minutes at room temperature. […]
FLIPR experiments were done using a laser setting of 0.8 W and a 0.4 second CCD camera shutter speed. […] An addition of test compound (0.01 μM to 30 μM in duplicate) was made after 10 seconds of baseline fluorescent readings were recorded on FLIPR. Fluorescent signals were then recorded for an additional 75 seconds at which point a second addition of DCG-IV (0.2 μM) was made and fluorescent signals were recorded for an additional 65 seconds. Fluorescent signals were measured as the peak height of the response within the sample period. Data was analyzed using Assay Explorer, and EC50 and Emax values (relative to maximum DCG-IV effect) were calculated using a four parameter logistic equation.
A [^35S]-GTPγS binding assay was used to functionally assay mGluR2 receptor activation. The allosteric activator activity of compounds at the human mGluR2 receptor were measured using a [^35S]-GTPγS binding assay with membranes prepared from CHO cells which stably express the human mGluR2. […] The GTPγS binding assay therefore provides a quantitative measure of receptor activation.
Membranes were prepared from CHO cells stably transfected with human mGluR2. […] The amount of radioactivity bound was determined by counting plates on the Packard TopCount. […]

T1 sequence (Q14416 19-819 limits assumed): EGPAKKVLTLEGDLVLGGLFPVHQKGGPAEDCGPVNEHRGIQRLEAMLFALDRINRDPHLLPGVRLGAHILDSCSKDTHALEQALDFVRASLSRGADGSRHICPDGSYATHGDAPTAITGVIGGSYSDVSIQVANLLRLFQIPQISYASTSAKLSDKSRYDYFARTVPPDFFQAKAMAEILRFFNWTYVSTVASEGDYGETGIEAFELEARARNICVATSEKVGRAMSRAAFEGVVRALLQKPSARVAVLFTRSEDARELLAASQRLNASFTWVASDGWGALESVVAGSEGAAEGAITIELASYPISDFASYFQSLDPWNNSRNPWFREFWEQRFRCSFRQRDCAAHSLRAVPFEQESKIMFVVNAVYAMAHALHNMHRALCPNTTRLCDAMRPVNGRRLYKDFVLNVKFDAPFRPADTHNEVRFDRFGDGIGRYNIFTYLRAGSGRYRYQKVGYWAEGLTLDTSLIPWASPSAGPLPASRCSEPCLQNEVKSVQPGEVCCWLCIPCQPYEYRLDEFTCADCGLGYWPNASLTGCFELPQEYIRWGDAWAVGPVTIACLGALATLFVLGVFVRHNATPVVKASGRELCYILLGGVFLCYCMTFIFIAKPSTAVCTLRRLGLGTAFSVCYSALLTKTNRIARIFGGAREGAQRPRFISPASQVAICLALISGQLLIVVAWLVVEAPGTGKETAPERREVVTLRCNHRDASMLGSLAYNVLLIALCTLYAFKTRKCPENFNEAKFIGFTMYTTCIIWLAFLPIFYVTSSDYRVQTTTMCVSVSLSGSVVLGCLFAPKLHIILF

| Structure (SMILES) | EC50 [nM] |
| --- | --- |
| Cc1cc(CC2CCN(Cc3ccc(F)cc3)CC2)cc2c1C(=O)N(CC1CCCCC1)C2 [Example 13.7, 2-Cyclohexylmethyl-5-[1-(4-fluoro-benzyl)-piperidin-4-ylmethyl]-7-methyl-2,3-dihydro-isoindol-1-one] | 28 |
| O=C1c2c(Cl)cc(-c3noc(CN4CCC(F)CC4)n3)cc2CN1Cc1ccc(OC(F)(F)F)cc1 [Example 8.3, 7-Chloro-5-[5-(4-fluoro-piperidin-1-ylmethyl)-[1,2,4]oxadiazol-3-yl]-2-(4-trifluoromethoxy-benzyl)-2,3-dihydro-isoindol-1-one] | 75 |
| Cc1cc(CC2CCN(Cc3ccccc3F)CC2)cc2c1C(=O)N(CC1CC1)C2 [Example 11, 2-Cyclopropylmethyl-5-[1-(2-fluorobenzyl)-piperidin-4-ylmethyl]-7-methyl-2,3-dihydro-isoindol-1-one] | 84 |
| Cc1cc(-c2nc(CN3CCN(C=O)CC3)no2)cc2c1C(=O)N(Cc1ccc(OC(F)(F)F)cc1)C2 [Example 10.4, 4-{5-[7-Methyl-1-oxo-2-(4-trifluoromethoxy-benzyl)-2,3-dihydro-1H-isoindol-5-yl]-[1,2,4]oxadiazol-3-ylmethyl}-piperazine-1-carbaldehyde] | 230 |
